Reference: BindingDB's records for patent US9868748 (Vitae Pharmaceuticals, 2018)

Target: T1, Nuclear receptor ROR-gamma (Homo sapiens, UniProt P51449)
T1 sequence (P51449 whole entry): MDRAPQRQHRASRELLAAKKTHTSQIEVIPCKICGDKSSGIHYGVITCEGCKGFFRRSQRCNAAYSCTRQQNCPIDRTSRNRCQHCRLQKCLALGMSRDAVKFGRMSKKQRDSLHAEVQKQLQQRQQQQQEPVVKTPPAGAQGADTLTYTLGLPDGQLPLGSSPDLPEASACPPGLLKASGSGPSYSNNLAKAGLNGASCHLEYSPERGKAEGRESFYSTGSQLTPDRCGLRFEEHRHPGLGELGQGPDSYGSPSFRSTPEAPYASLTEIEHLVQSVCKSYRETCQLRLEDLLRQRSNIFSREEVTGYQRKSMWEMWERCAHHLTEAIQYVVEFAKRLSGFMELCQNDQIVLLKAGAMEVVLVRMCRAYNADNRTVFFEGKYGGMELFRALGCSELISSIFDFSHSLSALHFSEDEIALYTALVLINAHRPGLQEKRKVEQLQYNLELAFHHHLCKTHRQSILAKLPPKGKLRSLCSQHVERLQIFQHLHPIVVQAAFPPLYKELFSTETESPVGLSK
Assay: Binding Assay
Description: Compounds of the present invention were tested for ability to bind to RORγ in a cell-free competition assay with commercially available radio-ligand (RL), 25-hydroxy [26,27-3H] cholesterol (PerkinElmer, Cat. # NET674250UC), for a ligand binding site on a recombinant RORγ Ligand Binding Domain (LBD) protein expressed as a 6×His-Glutathione-S-Transferase (GST) fusion ( 6×His disclosed as SEQ ID NO: 2). The assay was performed in 96-well SPA plates (PerkinElmer, Cat. #1450-401) in 50 mM HEPES buffer, pH 7.4, containing 150 mM NaCl, 5 mM MgCl2, 10% (v/v) glycerol, 2 mM CHAPS, 0.5 mM β-octylglucopyranoside and 5 mM DTT. Tested compounds were dissolved in DMSO, and semi-log (3.162×) serial dilutions of the compounds were prepared in the same solvent. Two μL of the DMSO solutions were mixed with 28 μL of 8.6 nM 25-hydroxy [26,27-3H] cholesterol and 50 μL of 24 nM RORγ LBD. […] SPA signal for tritium beta radiation was registered on PerkinElmer Microbeta plate reader. Percent inhibition values were calculated based on the high signal obtained with DMSO control and the low signal observed with 10 μM standard RORγ inverse agonist T0901317 (SigmaAldrich, Cat. # T2320). The percent inhibition vs. concentration data were fit into a four-parameter model, and […] values were calculated from the fit as the concentrations corresponding to the inflection points on the dose-response curves.

Ki: < 100 nM
Compound: CCS(=O)(=O)c1ccc(CC(=O)Nc2nc3c(s2)CN(CC2CC[C@@H](C(F)(F)F)N(C)C2)[C@H]3C(C)C)cc1 (stereo partly specified) [US9868748, I-A30]
